Data: the NIST ThermoML archive (doi:10.1016/j.fluid.2012.11.011)
Numbers after ± are expanded uncertainties.

Assay: osmotic coefficient (dimensionless); mn = molality of the nth substance listed, in mol/kg
Settings: 298.15 K, Liquid, isopiestic method

CC1(C)S[C@@H]2[C@H](NC(=O)Cc3ccccc3)C(=O)N2[C@H]1C(=O)[O-].[Na+] + O
Settings	osmotic coefficient
2.442 kPa, m1 = 9.082	0.796 ± 0.051
2.452 kPa, m1 = 9.136	0.779 ± 0.051
2.606 kPa, m1 = 7.249	0.749 ± 0.051
2.623 kPa, m1 = 7.416	0.708 ± 0.051
2.757 kPa, m1 = 5.709	0.678 ± 0.051
2.901 kPa, m1 = 3.775	0.652 ± 0.052
2.919 kPa, m1 = 3.9	0.585 ± 0.052
2.93 kPa, m1 = 3.429	0.636 ± 0.052
2.93 kPa, m1 = 3.558	0.612 ± 0.052
2.958 kPa, m1 = 3.303	0.582 ± 0.052
2.986 kPa, m1 = 2.627	0.63 ± 0.052
2.989 kPa, m1 = 2.675	0.61 ± 0.052
2.989 kPa, m1 = 2.704	0.603 ± 0.052
3.002 kPa, m1 = 2.483	0.608 ± 0.052
3.006 kPa, m1 = 2.489	0.592 ± 0.053
3.007 kPa, m1 = 2.326	0.629 ± 0.053
3.007 kPa, m1 = 2.366	0.62 ± 0.053
3.009 kPa, m1 = 2.334	0.618 ± 0.053
3.033 kPa, m1 = 2.001	0.612 ± 0.052
3.049 kPa, m1 = 1.757	0.616 ± 0.053
3.05 kPa, m1 = 1.757	0.61 ± 0.053
3.068 kPa, m1 = 1.28	0.705 ± 0.053
3.089 kPa, m1 = 1.073	0.672 ± 0.054
3.091 kPa, m1 = 1.085	0.647 ± 0.054
3.123 kPa, m1 = 0.457	0.903 ± 0.066
3.126 kPa, m1 = 0.4044	0.966 ± 0.066
3.17 kPa, m1 = 0	1 ± 0.052

CC1(C)S[C@@H]2[C@H](NC(=O)[C@H](N)c3ccccc3)C(=O)N2[C@H]1C(=O)[O-].[Na+] [Ampicillin Sodium] + O
Settings	osmotic coefficient
2.467 kPa, m1 = 7.468	0.93 ± 0.05
2.565 kPa, m1 = 6.773	0.867 ± 0.05
2.654 kPa, m1 = 5.991	0.822 ± 0.051
2.747 kPa, m1 = 5.699	0.696 ± 0.051
2.901 kPa, m1 = 4.439	0.553 ± 0.053
2.908 kPa, m1 = 4.261	0.562 ± 0.053
2.926 kPa, m1 = 4.103	0.54 ± 0.053
2.942 kPa, m1 = 3.839	0.538 ± 0.053
2.982 kPa, m1 = 3.301	0.513 ± 0.053
3.005 kPa, m1 = 2.932	0.504 ± 0.053
3.006 kPa, m1 = 2.958	0.499 ± 0.053
3.008 kPa, m1 = 2.867	0.506 ± 0.053
3.011 kPa, m1 = 2.855	0.498 ± 0.053
3.031 kPa, m1 = 2.397	0.519 ± 0.053
3.032 kPa, m1 = 2.398	0.514 ± 0.053
3.052 kPa, m1 = 1.912	0.548 ± 0.053
3.066 kPa, m1 = 1.699	0.546 ± 0.053
3.076 kPa, m1 = 1.476	0.563 ± 0.057
3.079 kPa, m1 = 1.392	0.578 ± 0.054
3.081 kPa, m1 = 1.369	0.575 ± 0.054
3.098 kPa, m1 = 1.134	0.564 ± 0.054
3.099 kPa, m1 = 1.093	0.576 ± 0.054
3.102 kPa, m1 = 0.9835	0.612 ± 0.075
3.103 kPa, m1 = 0.9725	0.612 ± 0.055
3.103 kPa, m1 = 1.029	0.578 ± 0.091
3.104 kPa, m1 = 1.015	0.576 ± 0.055
3.111 kPa, m1 = 0.8951	0.586 ± 0.056
3.113 kPa, m1 = 0.8284	0.612 ± 0.059
3.113 kPa, m1 = 0.8511	0.591 ± 0.058
3.118 kPa, m1 = 0.7369	0.617 ± 0.059
3.119 kPa, m1 = 0.6767	0.67 ± 0.059
3.119 kPa, m1 = 0.6922	0.651 ± 0.06
3.119 kPa, m1 = 0.7007	0.644 ± 0.06
3.119 kPa, m1 = 0.7507	0.597 ± 0.056
3.13 kPa, m1 = 0.5215	0.672 ± 0.058
3.131 kPa, m1 = 0.525	0.654 ± 0.056
3.131 kPa, m1 = 0.5325	0.648 ± 0.058
3.132 kPa, m1 = 0.47	0.72 ± 0.066
3.133 kPa, m1 = 0.4627	0.704 ± 0.06
3.139 kPa, m1 = 0.3871	0.705 ± 0.077
3.144 kPa, m1 = 0.3032	0.75 ± 0.055
3.145 kPa, m1 = 0.3044	0.714 ± 0.071
3.155 kPa, m1 = 0.1575	0.856 ± 0.05
3.162 kPa, m1 = 0.0754	0.885 ± 0.12
3.17 kPa, m1 = 0	1 ± 0.07
